What was measured:
Assay type in all cases: in vivo, rat
[1] = test system: T CD8^+ CD45RC^high cells; test: Flow cytometry of T cell subsets in muscle and spleen of WT and Dmd^mdx rats after treatment
Method: Muscles of both hind limbs from WT or Dmd^mdx rats were excised and weighed. Muscles were minced and placed in gentle MACS C tubes with collagenase D in the presence of FCS 2%, 1 mM EDTA. Two runs of 30 minutes each in a gentle MACS dissociator were performed with new collagenase added between each run. Cells were suspended in 30 mL of PBS FCS 2%, 1 mM EDTA, were then applied to 15 mL of Hystopaque and centrifuged at 1000 g for 30 minutes without a break. Mononuclear cells were collected from the Hystopaque and PBS interface, washed and suspended in PBS FCS 2%, 1 mM EDTA.
Spleen was harvested, perfused with PBS and digested by collagenase D for 15 minutes at 37° C. Cells were suspended in PBS FCS 2%, 1 mM EDTA and mononuclear cells were recovered as explained above.
Mononuclear cells were stained with antibodies against the following antigens: CD45 (clone OX-1), T-cell receptor (TCR; clone R7/3), CD45RC (clone OX22), CD8 (clone OX8) and CD4 (W3/25), as well as with viability dyes eFluor506 or eFluor450, all from eBiosciences. Analysis was performed on a BD FACS Verse with FACSuite Software version 1.0.6. Post-acquisition analysis was performed with FlowJo software.
(§1) Wild-type (WT) or Dmd^mdx (KO) rats received intraperitoneal injections of a mouse anti-rat CD45RC monoclonal antibody (clone OX22, 2 mg/kg, every 3.5 days) from week 2 of age up to week 12.
(§2) Prednisolone was administered by intraperitoneal injections (0.5 mg/kg, 5 days a week) from week 2 of age up to week 12.

[2] = test system: Dmd^mdx rats; test: Grip test of forelimb muscle strength in Dmd^mdx rats; conditions: ip from week 2 of age, tested at 12 weeks
Method: as §1, §2
At week 12 of age treated rats were analyzed for muscle strength using a grip test.
Rats were placed with their forepaws on a grid and were gently pulled backward until they released their grip. A grip meter (Bio-GT3, BIOSEB, France), attached to a force transducer, measured the peak force generated.
To examine whether muscle function was improved by the anti-CD45RC monoclonal antibody treatment, muscle strength was analyzed by a grip test of forelimbs in WT and Dmd^mdx rats at 12 weeks of age after initiation of treatment at 2 weeks of age.

[3] = Weight / animal growth of Dmd^mdx rats during treatment; conditions: ip from week 2 up to week 12 of age
Method: FIG. 6 is a set of two graphs showing the weight of wild-type or Dmd^mdx rats during treatment using prednisolone or anti-CD45RC monoclonal antibody. Control littermate wild-type (WT) or Dmd^mdx (KO) rats received intraperitoneal injections of prednisolone or anti-CD45RC monoclonal antibody (OX22) from week 2 up to week 12 of age and weight was recorded at the indicated time points.
as §1, §2

C[C@]12C=CC(=O)C=C1CC[C@@H]1[C@@H]2[C@@H](O)C[C@@]2(C)[C@H]1CC[C@]2(O)C(=O)CO [prednisolone]
T CD8^+ CD45RC^high cells ([1]; ip from week 2 of age, analyzed at 12 weeks, muscle of Dmd^mdx rats and spleen of WT and Dmd^mdx rats): specific decrease | CD4^+CD45RC^high cells ([1]; muscle and spleen of Dmd^mdx rats and spleen of WT rats, data not shown): numerically reduced | CD8^+CD45RC^int/neg cells ([1]; muscle and spleen of Dmd^mdx rats and spleen of WT rats, week 12): maintained | muscle strength (grip test) in treated Dmd^mdx rats compared with WT littermate controls [2]: levels identical to those of WT | muscle strength (grip test) in treated vs. untreated Dmd^mdx rats [2]: increased | animal growth (weight) [3]: severe reduction

Source: patent US20210163593A1, “TREATMENT OF MONOGENIC DISEASES WITH AN ANTI-CD45RC ANTIBODY” (INSERM (INSTITUT NATIONAL DE LA SANTÉ ET DE LA RECHERCHE …, priority 2017, published 2021)
